Reference: ChEMBL document CHEMBL3792360, “Antibacterial activity of Mannich bases derived from 2-naphthols, aromatic aldehydes and secondary aliphatic amines” (2016)

Key:
Assay type in all cases: functional
Escherichia coli [1] = test: Antibacterial activity against Escherichia coli ATCC 35218 after 16 to 20 hrs by broth microdilution method
Enterococcus faecalis = test: Antibacterial activity against Enterococcus faecalis ATCC 25912 after 16 to 20 hrs by broth microdilution method
Staphylococcus aureus [2] = test: Antibacterial activity against Staphylococcus aureus […] after 16 to 20 hrs by broth microdilution method
Enterobacter cloacae = test: Antibacterial activity against Enterobacter cloacae CIP 103475 after 16 to 20 hrs by broth microdilution method
Escherichia coli [3] = test: Antibacterial activity against Escherichia coli ATCC 25922 after 16 to 20 hrs by broth microdilution method
Klebsiella pneumoniae = test: Antibacterial activity against Klebsiella pneumoniae CIP 53153 after 16 to 20 hrs by broth microdilution method
Proteus vulgaris = test: Antibacterial activity against Proteus vulgaris CIP 104989 after 16 to 20 hrs by broth microdilution method
Citrobacter freundii = test: Antibacterial activity against Citrobacter freundii CIP 5732 after 16 to 20 hrs by broth microdilution method
Pseudomonas aeruginosa = test: Antibacterial activity against Pseudomonas aeruginosa CIP 82118 after 16 to 20 hrs by broth microdilution method
Staphylococcus aureus [4] = test: Antibacterial activity against methicillin-resistant Staphylococcus aureus ATCC 43300 after 16 to 20 hrs by broth microdilution method

Measured: MIC

COc1ccc2ccc(O)c(C(c3cccc4ccccc34)N3CCCCC3)c2c1 (stereo not given)
> 512 µg/mL: all assays above

Oc1ccc2ccccc2c1C(c1ccc(Br)s1)N1CCCCC1 (stereo not given)
8 µg/mL: Staphylococcus aureus [2]
16 µg/mL: Enterococcus faecalis | Staphylococcus aureus [4]
> 512 µg/mL: all other assays above

Cc1cc(C)cc(C(c2c(O)ccc3ccccc23)N2CCC(C)CC2)c1 (stereo not given)
> 512 µg/mL: all assays above

COc1ccc2ccc(O)c(C(c3cccs3)N3CCCCC3)c2c1 (stereo not given)
32 µg/mL: Enterococcus faecalis
16 µg/mL: Staphylococcus aureus [2] | Staphylococcus aureus [4]
> 512 µg/mL: all other assays above

COc1ccc2ccc(O)c(C(c3cccc4ccccc34)N3CCC(C)CC3)c2c1 (stereo not given)
> 512 µg/mL: all assays above

Oc1ccc2cc(Br)ccc2c1C(c1cccs1)N1CCCCC1 (stereo not given)
16 µg/mL: Enterococcus faecalis
8 µg/mL: Staphylococcus aureus [2] | Staphylococcus aureus [4]
> 512 µg/mL: all other assays above

Oc1ccc2ccccc2c1C(c1cccs1)N1CCCCC1 (stereo not given)
8 µg/mL: Staphylococcus aureus [4]
32 µg/mL: Enterococcus faecalis
16 µg/mL: Staphylococcus aureus [2]
> 512 µg/mL: all other assays above

Oc1ccc2ccccc2c1C(c1cccs1)N1CCCC1 (stereo not given)
32 µg/mL: Enterococcus faecalis | Staphylococcus aureus [2] | Staphylococcus aureus [4]
> 512 µg/mL: all other assays above

CC1CCN(C(c2ccc(F)cc2)c2c(O)ccc3ccccc23)CC1 (stereo not given)
> 512 µg/mL: all assays above

COc1ccc2ccc(O)c(C(c3ccccn3)N3CCC(C)CC3)c2c1 (stereo not given)
> 512 µg/mL: all assays above

CC1CCN(C(c2cccc(Cl)c2)c2c(O)ccc3cc(Br)ccc23)CC1 (stereo not given)
> 512 µg/mL: all assays above

CC1CCN(C(c2ccc(Br)s2)c2c(O)ccc3ccccc23)CC1 (stereo not given)
16 µg/mL: Enterococcus faecalis | Staphylococcus aureus [4]
8 µg/mL: Staphylococcus aureus [2]
> 512 µg/mL: all other assays above

CC1CCN(C(c2cccs2)c2c(O)ccc3ccccc23)CC1 (stereo not given)
8 µg/mL: Staphylococcus aureus [2] | Staphylococcus aureus [4]
16 µg/mL: Enterococcus faecalis
> 512 µg/mL: all other assays above

Oc1ccc2ccccc2c1C(c1cccc2ccccc12)N1CCCCC1 (stereo not given)
> 512 µg/mL: all assays above

CN1CCN(C(c2cccs2)c2c(O)ccc3ccccc23)CC1 (stereo not given)
32 µg/mL: Enterococcus faecalis | Staphylococcus aureus [2] | Staphylococcus aureus [4]
> 512 µg/mL: all other assays above
